What was measured:
Format in all cases: physicochemical
[1] = Acid-catalyzed degradation, HPLC purity
Procedure: (§1) Degradation products for ketorolac tromethamine were generated under acidic and basic conditions for reference when evaluating HPLC chromatograms for purity. This ensures differentiation between degradants, impurities, and peaks which are both impurities and degradants. For the acid-catalyzed degradation, 4.92 mg of ketorolac tromethamine was added to a scintillation vial, followed by 10 mL of H2O, and the pH of the resulting colorless solution was adjusted to pH 1.60 with H3PO4. Aliquots of this solution were placed in capped amber HPLC vials in an 85° C. oven for the indicated amount of time, then analyzed by HPLC using the purity method outlined in Table 3. For the base catalyzed degradation, 4.92 mg of ketorolac tromethamine was added to a scintillation vial, followed by 10 mL of H2O, and the resulting colorless solution was adjusted to pH 12.09 with NaOH. Aliquots of this solution were placed in capped amber HPLC vials in an 85° C. oven for the indicated amount of time, then analyzed by HPLC using the purity method outlined in Table 3.

[2] = Base-catalyzed degradation, HPLC purity
Procedure: as §1

[3] = Light Stability Study (ambient light), HPLC purity
Procedure: The clear scintillation vial was capped and placed on the windowsill, exposing the solution to both ambient light and temperature conditions. Aliquots (500 μL) were removed at various time points and diluted with an equal volume of H2O in an amber HPLC vial. The diluted solution was then analyzed by HPLC for the purity of ketorolac tromethamine.

[4] = Stability Study B in Baxter IntraVia bags, HPLC purity; settings: heat for extended periods of time
Procedure: Once all materials were added to the volumetric flask, it was filled to the line with H2O. The flask was magnetically stirred if any undissolved material was present. The formulations were then purged with N2 for 5 minutes before the bag filling process began. The Baxter IntraVia bags were filled by mass (80 g±1 g) using a peristaltic pump to feed the solution into each bag. A 2-way valve were placed in the solution filling line for sterile filtration and to regulate flow, respectively. For each formulation, 24 bags were filled.
All bags were used in the stability study without exposure to autoclave (or simulated autoclave) conditions. All bags were pulled within 1 day time points of 0, 4, 7, 14, 28 and 42 days and allowed to equilibrate to room temperature before sampling. Sampling of the bags for HPLC analysis occurred using a 5 cc disposable syringe with 21 gauge needle through the drug injection port. Approximately 1.5 mL of each formulation was transferred to an amber HPLC vial and analyzed within 12 hours of sampling.
This study included 3 formulations at 3 different temperatures (40° C., 60° C., and 80° C.) with time points over 6 weeks. Stability Study A provided information to structure Stability Study B with respect to the ideal parameters. […] Table 8 details the measured purity by HPLC of formulations 7, 8, and 10.

HPLC Purity ([1]; pH 1.60, 85° C., 2.5 hours): 98.96%
HPLC Purity ([1]; pH 1.60, 85° C., 4 hours): 98.92%
HPLC Purity ([1]; pH 1.60, 85° C., 24 hours): 98.87%
HPLC Purity ([1]; pH 1.60, 85° C., 40 hours): 98.08%
HPLC Purity ([1]; pH 1.60 with H3PO4, 85° C., 1.5 hours): 99.02%
HPLC Purity ([2]; pH 12.09, 85° C., 2.5 hours): 99.66%
HPLC Purity ([2]; pH 12.09, 85° C., 4 hours): 99.62%
HPLC Purity ([2]; pH 12.09, 85° C., 24 hours): 99.28%
HPLC Purity ([2]; pH 12.09, 85° C., 40 hours): 98.97%
HPLC Purity ([2]; pH 12.09 with NaOH, 85° C., 1.5 hours): 99.67%
Purity ([3]; ambient light and temperature, clear vial, in H2O, 0 days): 99.62%
Purity ([3]; ambient light, 1 day): 99.62%
Purity ([3]; ambient light, 3 days): 99.60%
Purity ([3]; ambient light, 5 days): 99.61%
Purity ([3]; ambient light, 12 days): 99.60%
Purity ([3]; ambient light, 41 days): 97.03%
Purity ([3]; ambient light, 48 days): 96.24%
Purity ([3]; ambient light, 62 days): 93.27%
Purity ([3]; ambient light, 76 days): 90.50%
stability upon exposure to heat [4]: stable
Structure (SMILES): O=C(c1ccccc1)c1ccc2n1CCC2C(=O)O (centres unmarked) [Ketorolac tromethamine]

— US10278959B2, “Ready to use ketorolac formulations” (RTU Pharmaceuticals, LLC, priority 2010, dated 2019)
